According to patent publication US10266497B2 (ABIDE THERAPEUTICS, INC., priority 2017, dated 2019):

Experiments:
MAGL [1] = target: T1, MAGL (Homo sapiens, UniProt Q99685); assay: In vitro competitive activity-based protein profiling, MAGL, human; conditions: for inhibition at 1 µM: read-out: MAGL % inh. 1 μM (human)
T1 sequence (Q99685 1-303): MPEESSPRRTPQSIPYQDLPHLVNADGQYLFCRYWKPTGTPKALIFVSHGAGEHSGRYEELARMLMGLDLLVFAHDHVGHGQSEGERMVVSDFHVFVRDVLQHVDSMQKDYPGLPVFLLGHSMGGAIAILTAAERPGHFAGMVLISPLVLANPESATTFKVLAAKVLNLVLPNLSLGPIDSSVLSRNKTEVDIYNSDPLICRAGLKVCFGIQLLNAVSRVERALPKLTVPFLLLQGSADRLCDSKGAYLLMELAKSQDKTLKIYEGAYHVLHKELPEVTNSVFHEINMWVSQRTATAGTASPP

MAGL [2] = target: T2, MAGL (Mus musculus, UniProt O35678); assay: In vitro competitive activity-based protein profiling, MAGL, mouse; conditions: read-out: MAGL % inh. 1 μM (mouse)
T2 sequence (O35678 1-303): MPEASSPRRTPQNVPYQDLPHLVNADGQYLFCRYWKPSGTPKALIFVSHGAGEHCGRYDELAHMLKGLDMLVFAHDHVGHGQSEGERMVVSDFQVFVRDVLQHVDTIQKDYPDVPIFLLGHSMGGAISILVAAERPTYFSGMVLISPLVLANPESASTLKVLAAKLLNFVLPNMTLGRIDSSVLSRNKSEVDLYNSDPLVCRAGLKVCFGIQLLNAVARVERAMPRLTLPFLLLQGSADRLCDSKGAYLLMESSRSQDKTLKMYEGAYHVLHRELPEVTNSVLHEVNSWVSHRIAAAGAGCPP

FAAH [3] = target: T3, FAAH (Homo sapiens, UniProt O00519); assay: In vitro competitive activity-based protein profiling, FAAH, human; conditions: for inhibition at 1 µM: read-out: FAAH % inh. 1 μM (human)
T3 sequence (O00519 1-579): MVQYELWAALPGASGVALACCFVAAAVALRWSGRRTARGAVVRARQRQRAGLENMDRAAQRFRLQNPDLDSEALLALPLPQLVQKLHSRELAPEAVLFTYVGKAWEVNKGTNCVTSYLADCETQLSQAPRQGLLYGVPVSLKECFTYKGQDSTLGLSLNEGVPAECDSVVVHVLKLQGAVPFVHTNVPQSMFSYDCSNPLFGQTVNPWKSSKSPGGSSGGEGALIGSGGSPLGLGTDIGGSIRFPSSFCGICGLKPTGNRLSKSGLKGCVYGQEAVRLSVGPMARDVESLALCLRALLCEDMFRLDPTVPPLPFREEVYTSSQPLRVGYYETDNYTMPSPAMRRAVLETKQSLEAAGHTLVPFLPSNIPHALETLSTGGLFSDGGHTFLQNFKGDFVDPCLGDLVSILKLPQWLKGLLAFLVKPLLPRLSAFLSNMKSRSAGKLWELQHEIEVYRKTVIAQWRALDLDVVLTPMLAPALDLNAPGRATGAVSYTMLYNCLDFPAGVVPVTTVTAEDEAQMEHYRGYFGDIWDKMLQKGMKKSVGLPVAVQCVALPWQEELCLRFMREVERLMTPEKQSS

FAAH [4] = target: T4, FAAH (Mus musculus, UniProt O08914); assay: In vitro competitive activity-based protein profiling, FAAH, mouse; conditions: read-out: FAAH % inh. 1 μM (mouse)
T4 sequence (O08914 1-579): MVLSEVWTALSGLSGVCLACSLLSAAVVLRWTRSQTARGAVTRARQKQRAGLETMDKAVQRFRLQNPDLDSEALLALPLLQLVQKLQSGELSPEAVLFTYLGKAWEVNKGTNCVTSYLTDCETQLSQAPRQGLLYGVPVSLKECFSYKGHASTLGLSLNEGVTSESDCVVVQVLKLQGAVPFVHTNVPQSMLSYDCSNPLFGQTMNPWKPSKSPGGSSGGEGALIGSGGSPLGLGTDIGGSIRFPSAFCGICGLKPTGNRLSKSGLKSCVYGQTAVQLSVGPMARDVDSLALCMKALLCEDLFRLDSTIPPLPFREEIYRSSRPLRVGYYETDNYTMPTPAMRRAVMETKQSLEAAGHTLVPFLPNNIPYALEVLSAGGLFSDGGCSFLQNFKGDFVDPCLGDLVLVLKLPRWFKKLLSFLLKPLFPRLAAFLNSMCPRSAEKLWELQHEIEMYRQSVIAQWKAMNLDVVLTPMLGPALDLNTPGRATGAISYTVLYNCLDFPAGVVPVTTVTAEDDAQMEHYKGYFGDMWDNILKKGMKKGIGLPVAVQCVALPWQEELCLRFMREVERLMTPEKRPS

inhibition at 1 µM (MAGL [1]) [%] | inhibition at 1 µM (MAGL [2]) [%] | inhibition at 1 µM (FAAH [3]) [%] | inhibition at 1 µM (FAAH [4]) [%] | IC50 (FAAH [3]) [µM] | inhibition at 10 µM (MAGL [1]; read-out: MAGL % inh. (human) at 10 uM) [%] | SMILES
> 75 | > 75 | 0 to 25 | 50 to 75 | – | – | O=C(O)c1ccn(C(=O)N2CCC3(CCN(C(=O)c4cc5ccc(C(F)(F)F)cc5s4)C3)CC2)n1 [Example 58, 1-(2-(6-(trifluoromethyl)benzo[b]thiophene-2-carbonyl)-2,8-diazaspiro[4.5]decane-8-carbonyl)-1H-pyrazole-3-carboxylic acid]
25 to 50 | 0 to 25 | 25 to 50 | 50 to 75 | – | – | O=C(O)c1ccn(C(=O)N2CCC(NCc3cccc(Oc4ccc(Cl)cc4)c3)CC2)n1 [Example 190, 1-(4-((3-(4-chlorophenoxy)benzyl)amino)piper-idine-1-carbonyl)-1H-pyrazole-3-carboxylic acid]
> 75 | > 75 | > 75 | > 75 | 0.1 to 1 | – | O=C(O)c1nn(C(=O)N2CC3CN(Cc4cc(Cl)ccc4Cl)CC3C2)cc1Cl (stereo not drawn) [Example 136, 4-chloro-1-(5-(2,5-dichlorobenzyl)octa-hydropyrrolo[3,4-c]pyrrole-2-carbonyl)-1H-pyrazole-3-carboxylic acid]
25 to 50 | 25 to 50 | > 75 | > 75 | – | – | O=C(O)c1ccn(C(=O)N2C[C@H]3C[C@@H](OCc4cc(F)cc(Cl)c4)C[C@H]3C2)n1 [Example 193, 1-(cis-5-((3-chloro-5-fluorobenzyl)oxy)octahydrocyclopenta [c]pyrrole-2-carbonyl)-1H-pyrazole-3-carboxylic acid]
50 to 75 | 25 to 50 | 0 to 25 | 0 to 25 | – | – | O=C(O)c1ccn(C(=O)N2CCN(Cc3cccc(Oc4cncnc4)c3)CC2)n1 [Example 65, 1-(4-(3-(pyrimidin-5-yloxy)benzyl)piper-azine-1-carbonyl)-1H-pyrazole-3-carboxylic acid]
25 to 50 | 0 to 25 | 0 to 25 | 0 to 25 | – | – | O=C(O)c1ccn(C(=O)N2CCC3(CCCN3Cc3ccc(C(F)(F)F)cc3-c3nnn[nH]3)CC2)n1 [Example 126, 1-(1-(2-(1H-tetrazol-5-yl)-4-(trifluoromethyl)benzyl)-1,8-diazaspiro[4.5]decane-8-carbonyl)-1H-pyrazole-3-carboxylic acid]
> 75 | > 75 | 0 to 25 | 0 to 25 | – | – | Cc1c(CN2CCC3(CCN(C(=O)n4ccc(C(=O)O)n4)CC3)C2)cccc1C(F)(F)F [Example 71, 1-(2-(2-methyl-3-(trifluoromethyl)benzyl)-2,8-diazaspiro[4.5]decane-8-carbonyl)-1H-pyrazole-3-carboxylic acid]
50 to 75 | > 75 | 0 to 25 | 0 to 25 | – | – | O=C(O)c1ccn(C(=O)N2CCC3(CCN(Cc4ccc(C(F)(F)F)cc4N4CCC(F)CC4)CC3)C2)n1 [Example 186, 1-(8-(2-(4-fluoropiperidin-1-yl)-4-(trifluoromethyl)benzyl)-2,8-diazaspiro[4.5]decane-2-carbonyl)-1H-pyrazole-3-carboxylic acid]
> 75 | 50 to 75 | > 75 | > 75 | – | – | O=C(O)c1nn(C(=O)N2CC3CN(Cc4cc(Cl)ccc4Cl)CC3C2)cc1C(F)(F)F (stereo not drawn) [Example 146, 1-(5-(2,5-dichlorobenzyl)octa-hydropyrrolo[3,4-c]pyrrole-2-carbonyl)-4-(trifluoromethyl)-1H-pyrazole-3-carboxylic acid]
– | 0 to 25 | 0 to 25 | 0 to 25 | – | > 75 | O=C(O)c1nn(C(=O)N2CCN(Cc3ccc(-c4nnn[nH]4)cc3C(F)(F)F)CC2)cc1Cl [Example 142, 1-(4-(4-(1H-tetrazol-5-yl)-2-(trifluoromethyl)benzyl)piperazine-1-carbonyl)-4-chloro-1H-pyrazole-3-carboxylic acid]
> 75 | > 75 | > 75 | > 75 | – | – | C#Cc1ccc(CN2CCN(C(=O)n3ccc(C(N)=O)n3)CC2)cc1 [Example 144, 1-(4-(4-ethynylbenzyl)piper-azine-1-carbonyl)-1H-pyrazole-3-carboxamide]
> 75 | > 75 | 0 to 25 | 0 to 25 | – | – | O=C(O)c1ccn(C(=O)N2CCN(Cc3ccc(C(F)(F)F)cc3N3CCC(F)(F)CC3)CC2)n1 [Example 108, 1-(4-(2-(4,4-difluoropiperidin-1-yl)-4-(trifluoromethyl)benzyl)piperazine-1-carbonyl)-1H-pyrazole-3-carboxylic acid]
> 75 | > 75 | 0 to 25 | 0 to 25 | 1 to 10 | – | O=C(O)c1ccn(C(=O)N2CCC3(CCN(Cc4cc(Cl)cc(C(F)(F)F)c4)C3)CC2)n1 [Example 72, 1-(2-(3-chloro-5-(trifluoromethyl)benzyl)-2,8-diazaspiro[4.5]decane-8-carbonyl)-1H-pyrazole-3-carboxylic acid]
> 75 | > 75 | 0 to 25 | 0 to 25 | 1 to 10 | – | O=C(O)c1ccn(C(=O)N2CCC3(CCN(Cc4ccc(C(F)(F)F)cc4Cl)C3)CC2)n1 [Example 77, 1-(2-(2-chloro-4-(trifluoromethyl)benzyl)-2,8-diazaspiro[4.5]decane-8-carbonyl)-1H-pyrazole-3-carboxylic acid]
> 75 | > 75 | > 75 | 50 to 75 | – | – | NC(=O)c1ccn(C(=O)N2CCN(Cc3ccc(N4CCOCC4)cc3Cl)CC2)n1 [Example 165, 1-(4-(2-chloro-4-morpholinobenzyl)piperazine-1-carbonyl)-1H-pyrazole-3-carboxamide]
> 75 | > 75 | 0 to 25 | 0 to 25 | – | – | C[C@H]1CCCCN1c1cc(C(F)(F)F)ccc1CN1CCN(C(=O)n2ccc(C(=O)O)n2)CC1 [Example 110, (S)-1-(4-(2-(2-methylpiperidin-1-yl)-4-(trifluoromethyl)benzyl)piperazine-1-carbonyl)-1H-pyrazole-3-carboxylic acid]
> 75 | > 75 | > 75 | 50 to 75 | 0.1 to 1 | – | O=C(O)c1nn(C(=O)N2CCC3(CC2)CN(Cc2cc(Cl)ccc2C(F)(F)F)C3)cc1Cl [Example 134, 4-chloro-1-(2-(5-chloro-2-(trifluoromethyl)benzyl)-2,7-diazaspiro[3.5]non-ane-7-carbonyl)-1H-pyrazole-3-carboxylic acid]
